# Results published in patent US20260315416A1, “PHENYLLACTIC ACID COMPOSITIONS AND RELATED METHODS OF USE” (priority 2023, published 2026).
# How the values were obtained:
# [1] = pH determination of PLA ILs dissolved in water; assay type: physicochemical
# Experimental: (§1) The equilibrium solubility of D-PLA, L-PLA, and their ILs was determined using a previously reported method.^30 An excess amount of D-PLA, L-PLA, or their ILs was added in an Eppendorf tube along with 1 mL of water. The sample was placed on an orbital shaker and was equilibrated at room temperature for 24 h with a speed of 200 rpm. After 24 h, the samples were centrifuged, the supernatant was filtered using a 0.22 μm syringe filter and further diluted using methanol as necessary. The D-PLA or L-PLA content in the supernatant was analyzed using the HPLC method to calculate the equilibrium solubility. Further, the pH values of D-PLA, L-PLA, and their ILs dissolved in water were determined using a VWR 1100L pH meter.
# [2] = Thermogravimetric analysis (TGA), thermal stability; assay type: physicochemical; conditions: 30-350° C. at 10° C./min, nitrogen
# Experimental: TA Instruments Discovery TGA 5500 (TA instruments, New Castle, DE, USA) was used to analyse pure PLA, carnitine, and various PLA ILs. The samples were accurately weighed (2-5 mg) in platinum pans and placed onto the autosampler. The samples were heated from 30° C. to 350° C. at 10° C./min; nitrogen was purged at a rate of 25 mL/min. TRIOS software (TA instruments, New Castle, DE, USA) was used to analyse the data.
# [3] = Differential scanning calorimetry (DSC), glass transition temperature; assay type: physicochemical; conditions: cool/heat 5° C./min, 30 to −80° C.
# Experimental: The TA Instruments DSC 2500 RCS40 cooling unit (TA instruments, New Castle, DE, USA), calibrated with indium, was used to record thermograms of pure compounds of D-PLA, L-PLA, carnitine, and their corresponding ILs. The samples were weighed (6-10 mg) and hermetically sealed in Tzero aluminium pans, along with an empty reference Tzero pan. The atmosphere was inert because of nitrogen purge at a rate of 25 mL/min. The samples were heated from 30° C. to the temperature equivalent to a 5% weight loss point with a 5° C./min ramp for each sample to observe thermal transitions. The glass transition temperature (Tg) for each sample was recorded in the cool/heat run at 5° C./min ramp from 30° C. to −80° C., and from −80° C. to 30° C. TRIOS software (TA instruments, New Castle, DE, USA) was used to analyse the data.
# [4] = system: human cervical epithelial cells (A2EN); experiment: Crystal violet staining for cervical cell morphology; assay type: cell-based; conditions: 24 h; even at 100 mM
# Experimental: (§2) Human endocervical epithelial cell line (A2EN), generated from human endocervical explant tissue^31, was cultured as monolayers in keratinocyte serum-free medium (KFSM) supplemented with recombinant epidermal growth factor (5 ng/ml), bovine pituitary extract (50 μg/ml; Gibco), CaCl2 ([…]; Sigma-Aldrich), and primocin (100 μg/ml; InvivoGen, San Diego, CA), herein referred to as A2 medium, at 37° C. under 5% carbon dioxide (CO2) atmosphere.
# (§3) Prior to cytotoxicity testing, PLA ILs were diluted to 1 M concentrations with distilled water and filtered using a sterile 0.2 μm syringe filter. Solutions with pH ranging from 4 to 7.5 were prepared by adjusting the pH of A2 media with hydrochloric acid (HCl), following filtration using a sterile 0.2 μm syringe filter.
# Cervical cell morphology following PLA IL treatment was visualised using 2.3% crystal violet stain with 0.1% ammonium oxalate and 20% ethanol (Sigma-Aldrich). Cervical cell monolayers were seeded into a tissue-treated 24-well microtiter plate (Falcon) at a density of 1.5×10^5 cells/well and incubated for 24 h at 37° C. under 5% CO2. Two-fold serial dilutions of each PLA IL were prepared and aliquoted into respective wells to obtain final concentrations of 3.125 to 100 mM. Deionised water and 1% Conceptrol (v/v), containing the detergent, nonoxynol-9, were used as negative and positive controls, respectively. […]
# [5] = system: human cervical epithelial cells (A2EN); experiment: MTT assay for cervical cell proliferation/viability; assay type: cell-based; conditions: 24 h; even at 50 mM
# Experimental: as §2, §3
# Cervical cell monolayers were seeded into a tissue-treated 96-well microtiter plate (Corning Costar) at a density of 2.0×10^4 cells/well and incubated for 24 h at 37° C. under 5% CO2. Cells were treated with each PLA IL at concentrations ranging to 3.125 to 100 mM and incubated for 24 h (37° C. under 5% CO2). […] Absorbance was measured at 570 nm (reference 650 nm) and recorded using the Safire II Multi-Mode Microplate reader (Tecan, Mannedorf, Switzerland). Percentage cell viability was calculated as [sample absorbance−media background absorbance]/[control absorbance−media background absorbance]×100. […]
# [6] = Equilibrium (saturation) solubility in water; assay type: physicochemical; conditions: room temperature, HPLC; for saturation/equilibrium solubility in water: 24 h, 1440 min
# Experimental: To evaluate the purity of the synthesized D- or L-PLA ILs and for the determination of their water solubility, a reverse phase-HPLC method was developed. The HPLC apparatus consisted of a Shimadzu LC2050C-3D system with a PDA detector. Samples were run through a C18 precolumn and a Gemini C18 reverse-phase column [150×4.5 mm (ID.)] with 5 μm particle size packing (Phenomenex, Torrance, CA). The mobile phase contained acetonitrile and 20 mM phosphoric acid solution in water (25:75). The flow rate of the mobile phase was at 0.8 mL/min, the column oven was set at 45° C., the injection volume was 10 μL, and the detection was carried out at 210 nm. The retention time for PLA was 5.5 min. For the standard curve, D- or L-PLA stock solutions (0.1 mg/mL) were prepared in methanol. The stock solutions were diluted to obtain solutions of various concentrations. The standard curve was obtained by injecting 5-25 μg/mL of PLA. All the experiments were performed in triplicate.
# as §1
# [7] = Kinetic solubility in water; assay type: physicochemical; conditions: vs equilibrium solubility
# bacteria and fungi = conditions: D-PLA vs L-PLA; cited from earlier work
# [8] = system: peroxisome proliferator-activated receptor γ (PPAR-γ); conditions: mouse model, early-life antibiotic exposure and high-fat diet; cited from earlier work
# [9] = system: Salmonella enterica serovar Typhimurium-induced colitis; conditions: mice; cited from earlier work
# [10] = system: urogenital pathogens (Streptococcus agalactiae, Klebsiella pneumoniae, Candida albicans); conditions: in vitro; gram-positive, gram-negative and fungal urogenital pathogens; cited from earlier work
# [11] = system: cervicovaginal epithelial barrier; conditions: cited from earlier work
Structure (SMILES),T5% (onset temperature at 5% mass loss) [2],saturation/equilibrium solubility in water [6],solubility thermodynamic at 24 h [6],kinetic solubility in water [7],also measured
C[N+](C)(C)CCO.O=C([O-])[C@H](O)Cc1ccccc1 [Chol:D-PLA (1:1)],94.3 °C,,,,pH [1]: ~ 9; glass transition temperature (Tg) [3]: −63.53 °C; morphological changes [4]: no morphological changes were observed; cell viability [5]: did not significantly reduce cervical epithelial cell viability
O=C(O)[C@H](O)Cc1ccccc1 [D-PLA],,> 25 mg/mL,33.1 ± 0.44 mg/mL,considerably lower,antimicrobial activity of enantiomer (bacteria and fungi): greater antimicrobial activity than L-PLA
O=C(O)[C@@H](O)Cc1ccccc1 [L-PLA],156.07 °C,> 25 mg/mL,25.7 ± 1.02 mg/mL,considerably lower,
"O=C(O)C(O)Cc1ccccc1 (centres unmarked) [PLA, 2-hydroxy-3-phenylpropanoic acid]",,,,low kinetic solubility in water,PPAR-γ activity [8]: upregulates intestinal peroxisome proliferator-activated receptor γ (PPAR-γ) activity; protection against colitis [9]: protect against Salmonella enterica serovar Typhimurium-induced colitis in mice; antimicrobial properties [10]: exhibits antimicrobial properties
C[N+](C)(C)C[C@H](O)CC(=O)[O-] [carnitine],189.9 °C,,,,
CC(O)C(=O)O (centres unmarked) [lactic acid],,,,,"anti-inflammatory activity [11]: anti-inflammatory activity; epithelial barrier integrity ([11]; physiological concentrations, tight junction protein expression): enhance cervicovaginal epithelial barrier integrity"
